This is an account of results in paper PMC3760004 (Cancer research, 2013).

For one assay, the system named is KRAS-driven lung tumors. Put plainly: Tumor volume by MRI in KRAS G12D driven lung cancer model. In kind it is in vivo. As to conditions: KRAS G12D mice, 4 weeks, Torin2 40 mg/kg q.d., AZD6244 25 mg/kg q.d.
For a further assay, the system named is pERK. Put plainly: Pharmacodynamics by immunohistochemistry in KRAS G12D lung tumors. In kind it is in vivo, Mice. As to conditions: for pERK1/2 levels: after 4-week treatment.
For the next assay, the system named is Calu1. Briefly: 72-hour proliferation assay. The class given is cell-based, human.
In assay [1] the target is T1, mTORC1 (Homo sapiens, UniProt P42345). Briefly: Cellular wash-out assay, S6KT389 phosphorylation, HCT116 cells. The class given is cell-based. The conditions noted are these: 100 nM for 1 hour, then wash-out.
Assay [2] deals with T2, mTORC2 (Homo sapiens, UniProt P42345). Briefly: Cellular wash-out assay, AktS473 phosphorylation, HCT116 cells. The class given is cell-based. The conditions noted are these: 100 nM for 1 hour, then wash-out.
Another assay deals with PIP4K2C (Homo sapiens, UniProt Q8TBX8). Put plainly: Kinativ chemical proteomics profiling in cellular lysates. In kind it is binding.
Chain of PIP4K2C (Q8TBX8 whole entry, species assumed): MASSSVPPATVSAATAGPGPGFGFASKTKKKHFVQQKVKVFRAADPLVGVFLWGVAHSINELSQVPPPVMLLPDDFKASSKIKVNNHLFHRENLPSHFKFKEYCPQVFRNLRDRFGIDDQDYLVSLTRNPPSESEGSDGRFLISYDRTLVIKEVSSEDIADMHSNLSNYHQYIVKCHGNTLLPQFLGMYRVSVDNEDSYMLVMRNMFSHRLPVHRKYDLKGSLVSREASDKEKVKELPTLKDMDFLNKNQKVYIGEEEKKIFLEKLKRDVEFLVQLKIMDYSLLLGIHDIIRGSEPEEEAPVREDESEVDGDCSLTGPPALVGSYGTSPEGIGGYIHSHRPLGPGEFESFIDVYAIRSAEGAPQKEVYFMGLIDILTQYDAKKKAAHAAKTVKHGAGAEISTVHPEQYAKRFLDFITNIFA
Another assay concerns the target PIP5K3 (Homo sapiens, UniProt Q9Y2I7). The description is as above. The class given is binding.
For assay [3], the target named is T3, ATR (Homo sapiens, UniProt Q13535). Put plainly: ATR cellular activity, S317 of Chk1 after UV radiation, HCT-116 cells. In kind it is cell-based.
Assay [4] addresses T4, ATM (Homo sapiens, UniProt Q13315). The class given is cell-based.
For another assay, the target named is SMG1 (Homo sapiens, UniProt Q96Q15). Put plainly: Kinativ chemical proteomics profiling in cellular lysates. In kind it is binding.
Assay [5] deals with T1, mTORC1. As to conditions: 0.5 µM inhibitor 1 hour, then 500 µM ATP.
Assay [6] has as its target T1, mTORC1. As to conditions: cited from earlier work.
The target of assay [7] is T4, ATM. Put plainly: Kinativ chemical proteomics profiling in cellular lysates. The class given is binding.
For assay [8], the target named is T3, ATR. The description is as above. The class given is binding.
The subject of the next assay is mTOR. Briefly: Pharmacodynamics by immunohistochemistry in KRAS G12D lung tumors. The class given is in vivo, Mice.
A further assay relates to H2122. Briefly: Tumor cell growth assay. As to conditions: Homo sapiens, NCI-H2122, 72 h. The class given is cell-based.
In another assay the test system is ATR kinase. Put plainly: Pharmacodynamics by immunohistochemistry in KRAS G12D lung tumors. In kind it is in vivo, Mice. As to conditions: after 4-week treatment.
In assay [9] the test system is HCT-116, Hela, Calu-1, H358 and H226. Briefly: Autophagy assay, LC3B staining and western blot. In kind it is cell-based. The conditions noted are these: 5 cell lines, 3 days.
Another assay concerns H1355. Put plainly: Tumor cell growth assay. The class given is cell-based. As to conditions: Homo sapiens, NCI-H1355, 72 h.
The test system of the next assay is H292. Put plainly: Tumor cell growth assay. The conditions noted are these: Homo sapiens, NCI-H292, 72 h. The class given is cell-based.
The subject of assay [10] is HCT116 cells, AktT308 phosphorylation. Put plainly: Longer-term cellular signaling analysis. The class given is cell-based. The conditions noted are these: 100 nM.
For a further assay, the system named is H358. Briefly: Tumor cell growth assay. In kind it is cell-based. As to conditions: Homo sapiens, NCI-H358, 72 h.
Assay [11] deals with cancer cell lines (HCT116, Hela, Calu 1, H226, H358). Put plainly: Apoptosis assay, PARP cleavage by western blot. As to conditions: 16 hours. The class given is cell-based.
Assay [12] deals with human fibroblast AG01522 cell line. Briefly: Ionizing irradiation assay, clonogenic cell survival. The class given is cell-based. The conditions noted are these: AG01522, added 30min before irradiation.
The subject of a further assay is HCT-116. Put plainly: Tumor cell growth assay. The class given is cell-based. As to conditions: Homo sapiens, HCT-116, 72 h.
The next assay relates to BT-20. Briefly: Tumor cell growth assay. The conditions noted are these: Homo sapiens, BT-20, 72 h. In kind it is cell-based.
The test system of the next assay is T308 of Akt. Briefly: Western blot of T308 of Akt in HCT-116 cells. In kind it is cell-based. As to conditions: Homo sapiens, HCT-116, read-out: EC50, T308 of Akt. For orientation: Immunoblotting shows a protein as a band on a membrane.
Assay [13] concerns the target T1, mTORC1. As to conditions: combined biochemical and cellular profiling summary.
The target in the next assay is DNA-PK (Homo sapiens, UniProt P78527). As to conditions: combined biochemical and cellular profiling summary.
The target in assay [14] is T2, mTORC2. The conditions noted are these: combined biochemical and cellular profiling summary.
The subject of the next assay is H1299. Briefly: Tumor cell growth assay. The class given is cell-based. The conditions noted are these: Homo sapiens, NCI-H1299, 72 h.
For another assay, the system named is MCF10A. Put plainly: Tumor cell growth assay. The class given is cell-based. As to conditions: Homo sapiens, MCF-10A, 72 h.
Another assay relates to Hela cells. Briefly: Autophagy assay, acridine orange staining. The class given is cell-based. The conditions noted are these: 72 h.
The next assay has as its system HS578T. Put plainly: Tumor cell growth assay. In kind it is cell-based. The conditions noted are these: Homo sapiens, Hs-578T, 72 h.
In assay [15] the test system is HeLa cells, AktT308 phosphorylation. Briefly: Longer-term cellular signaling analysis. The class given is cell-based. The conditions noted are these: 100 nM.
The target in another assay is Human mTORC1 complex (Homo sapiens, UniProt P42345). Briefly: ATP competition assay. As to conditions: biochemical kinase assays with increasing ATP concentrations.
Another assay deals with H1792. Briefly: Tumor cell growth assay. In kind it is cell-based. As to conditions: Homo sapiens, NCI-H1792, 72 h.
A further assay concerns MCF7. Put plainly: Tumor cell growth assay. The class given is cell-based. The conditions noted are these: Homo sapiens, MCF7, 72 h.
The subject of the next assay is H441. Briefly: Tumor cell growth assay. In kind it is cell-based. The conditions noted are these: Homo sapiens, NCI-H441, 72 h.
A further assay relates to H460. Put plainly: Tumor cell growth assay. In kind it is cell-based. The conditions noted are these: Homo sapiens, NCI-H460, 72 h.
For the next assay, the system named is SKBR3. Briefly: Tumor cell growth assay. The class given is cell-based. The conditions noted are these: Homo sapiens, SK-BR-3, 72 h.
In the next assay the test system is Hela. Put plainly: Tumor cell growth assay. As to conditions: Homo sapiens, 72 h. In kind it is cell-based.
In another assay the test system is Hela S3 cells. Put plainly: Cell cycle analysis by FACS. The conditions noted are these: Hela S3, 48 hrs. In kind it is cell-based. In general terms: A flow cytometer gives signals particle by particle.
For the next assay, the system named is A549. Put plainly: Tumor cell growth assay. The class given is cell-based. The conditions noted are these: Homo sapiens, A549, 72 h.
A further assay deals with MDAMB231. Briefly: Tumor cell growth assay. In kind it is cell-based. The conditions noted are these: Homo sapiens, MDA-MB-231, 72 h.
The mark [16] stands for this setting: 2-day, 40 mg/kg single daily dosing.
Where [17] appears, read: combined biochemical and cellular profiling summary.

Entries after “also recorded” stand apart in the source; their conditions may differ.

T4 sequence (Q13315 whole entry, species assumed): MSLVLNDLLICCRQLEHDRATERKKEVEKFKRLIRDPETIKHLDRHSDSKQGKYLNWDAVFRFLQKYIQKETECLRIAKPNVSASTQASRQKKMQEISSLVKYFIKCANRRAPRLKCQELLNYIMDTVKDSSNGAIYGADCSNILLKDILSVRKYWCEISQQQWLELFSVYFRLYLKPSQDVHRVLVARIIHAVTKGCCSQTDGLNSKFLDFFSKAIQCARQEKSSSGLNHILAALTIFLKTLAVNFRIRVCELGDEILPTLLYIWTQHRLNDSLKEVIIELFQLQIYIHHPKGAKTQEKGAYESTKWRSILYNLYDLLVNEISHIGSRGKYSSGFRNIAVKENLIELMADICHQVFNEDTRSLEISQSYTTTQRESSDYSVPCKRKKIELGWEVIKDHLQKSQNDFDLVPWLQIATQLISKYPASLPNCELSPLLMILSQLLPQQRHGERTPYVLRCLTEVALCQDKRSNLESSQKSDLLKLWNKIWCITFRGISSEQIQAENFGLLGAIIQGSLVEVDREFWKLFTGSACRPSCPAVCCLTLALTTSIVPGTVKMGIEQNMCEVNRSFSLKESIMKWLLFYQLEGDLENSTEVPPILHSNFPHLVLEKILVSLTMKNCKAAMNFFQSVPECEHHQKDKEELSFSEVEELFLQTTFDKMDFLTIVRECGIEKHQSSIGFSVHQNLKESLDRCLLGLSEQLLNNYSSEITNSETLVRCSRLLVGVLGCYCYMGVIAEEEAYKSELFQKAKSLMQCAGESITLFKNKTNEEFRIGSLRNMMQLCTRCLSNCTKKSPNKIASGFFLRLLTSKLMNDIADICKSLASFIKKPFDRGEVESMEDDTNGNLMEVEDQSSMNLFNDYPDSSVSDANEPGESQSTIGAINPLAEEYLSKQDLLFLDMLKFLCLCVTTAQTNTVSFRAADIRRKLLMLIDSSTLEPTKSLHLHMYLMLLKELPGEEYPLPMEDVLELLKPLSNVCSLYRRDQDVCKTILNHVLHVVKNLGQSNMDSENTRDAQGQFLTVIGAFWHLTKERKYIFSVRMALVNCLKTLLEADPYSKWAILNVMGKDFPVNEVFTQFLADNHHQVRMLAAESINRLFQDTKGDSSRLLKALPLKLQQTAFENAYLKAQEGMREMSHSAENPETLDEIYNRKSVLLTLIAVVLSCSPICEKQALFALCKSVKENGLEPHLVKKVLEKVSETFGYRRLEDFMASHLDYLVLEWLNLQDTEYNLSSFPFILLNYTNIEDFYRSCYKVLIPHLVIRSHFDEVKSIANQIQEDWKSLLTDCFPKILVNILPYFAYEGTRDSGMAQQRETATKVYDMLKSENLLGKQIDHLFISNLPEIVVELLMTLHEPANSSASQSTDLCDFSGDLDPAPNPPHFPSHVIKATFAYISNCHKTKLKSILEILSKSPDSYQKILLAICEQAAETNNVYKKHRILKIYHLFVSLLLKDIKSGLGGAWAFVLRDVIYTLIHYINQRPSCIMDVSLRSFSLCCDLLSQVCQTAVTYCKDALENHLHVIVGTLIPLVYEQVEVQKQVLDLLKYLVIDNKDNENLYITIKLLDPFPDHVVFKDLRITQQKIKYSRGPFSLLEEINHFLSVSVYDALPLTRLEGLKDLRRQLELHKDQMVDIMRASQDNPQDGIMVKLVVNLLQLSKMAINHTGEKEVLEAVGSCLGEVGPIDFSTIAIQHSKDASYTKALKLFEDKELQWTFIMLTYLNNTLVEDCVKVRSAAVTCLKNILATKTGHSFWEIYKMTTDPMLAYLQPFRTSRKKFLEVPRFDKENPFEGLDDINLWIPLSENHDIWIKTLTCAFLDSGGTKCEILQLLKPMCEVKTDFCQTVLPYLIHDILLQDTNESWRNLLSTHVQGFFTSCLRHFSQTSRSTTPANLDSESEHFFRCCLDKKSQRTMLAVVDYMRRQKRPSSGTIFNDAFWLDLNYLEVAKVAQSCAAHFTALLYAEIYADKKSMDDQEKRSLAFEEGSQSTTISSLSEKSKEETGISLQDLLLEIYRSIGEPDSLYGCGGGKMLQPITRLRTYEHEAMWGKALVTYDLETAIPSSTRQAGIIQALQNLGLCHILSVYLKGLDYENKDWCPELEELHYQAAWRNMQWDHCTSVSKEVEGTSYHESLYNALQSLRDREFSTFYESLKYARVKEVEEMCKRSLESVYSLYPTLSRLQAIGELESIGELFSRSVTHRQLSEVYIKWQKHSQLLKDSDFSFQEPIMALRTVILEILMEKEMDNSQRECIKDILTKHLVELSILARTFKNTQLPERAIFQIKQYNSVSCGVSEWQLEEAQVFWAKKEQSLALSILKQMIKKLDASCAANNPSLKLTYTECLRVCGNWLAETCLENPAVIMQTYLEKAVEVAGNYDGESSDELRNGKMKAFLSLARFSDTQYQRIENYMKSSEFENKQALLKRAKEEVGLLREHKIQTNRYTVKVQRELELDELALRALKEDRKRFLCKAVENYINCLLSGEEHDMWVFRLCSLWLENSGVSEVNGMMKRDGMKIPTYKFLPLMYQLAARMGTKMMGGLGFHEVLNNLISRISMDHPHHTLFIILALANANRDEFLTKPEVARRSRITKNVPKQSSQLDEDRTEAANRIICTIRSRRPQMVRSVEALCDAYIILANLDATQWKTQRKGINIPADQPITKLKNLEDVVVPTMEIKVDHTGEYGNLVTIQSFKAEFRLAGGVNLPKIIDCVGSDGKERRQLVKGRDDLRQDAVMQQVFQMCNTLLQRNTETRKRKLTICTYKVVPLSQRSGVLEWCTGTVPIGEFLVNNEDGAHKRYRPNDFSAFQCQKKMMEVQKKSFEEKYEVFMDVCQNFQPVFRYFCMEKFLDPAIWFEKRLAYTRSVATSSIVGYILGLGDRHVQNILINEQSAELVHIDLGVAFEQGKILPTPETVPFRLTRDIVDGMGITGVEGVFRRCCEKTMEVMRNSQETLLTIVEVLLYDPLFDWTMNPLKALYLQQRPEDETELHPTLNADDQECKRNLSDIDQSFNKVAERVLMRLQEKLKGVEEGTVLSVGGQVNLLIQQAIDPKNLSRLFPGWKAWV

As to `Cn1cnc2c(F)c(Nc3ccc(Br)cc3Cl)c(C(=O)NOCCO)cc21` [AZD6244], the “tumor volume / tumor growth by MRI” value in the assay on KRAS-driven lung tumors is listed as “neither Torin2 (40 mg/kg, q.d.) nor AZD6244 (25 mg/kg, q.d.) alone resulted in a significant inhibition of tumor volume”. The pERK by immunohistochemistry entry in the assay on pERK (2-day, AZD6244 25 mg/kg) is “profound inhibition”. Further, the pERK1/2 levels entry in the assay on pERK was “slightly recovered”.
Turning to `COc1ccc(-c2ccc3c(N4CCOC[C@@H]4C)nc(N4CCOC[C@@H]4C)nc3n2)cc1CO` [AZD8055, reference compound], the “sensitivity of proliferation, Calu1” value in the assay with Calu1 is given as “relatively more resistant”. Also, the “time for S6KT389 phosphorylation (mTORC1 function) to recover after wash-out” value at mTORC1 [1] is at most 1 h. For the same molecule, the “time for AktS473 phosphorylation (mTORC2 function) to recover after wash-out” value at mTORC2 [2] is at most 1 h.
Take `CCC(=O)N1CCN(c2ccc(-n3c(=O)ccc4cnc5ccc(-c6cnc7ccccc7c6)cc5c43)cc2C(F)(F)F)CC1` [Torin1, 1-(4-(4-propionylpiperazin-1-yl)-3-(trifluoromethyl)phenyl)-9-(quinolin-3-yl)benz o[h][1,6]naphthyridin-2(1H)-one]: the IC50 (as a rule, the concentration needed to halve the response being measured) against PIP4K2C was over 10 µM; against PIP5K3, over 10 µM; at SMG1, 4.4 µM; on ATM [7], 0.64 µM; against ATR [8], under 0.01 µM. Besides, the EC50 at ATR [3] and on ATM [4] was over 1 µM each time. For the same molecule, the “duration of sustained inhibition of mTORC1 kinase activity after removal of drug” value on mTORC1 [5] (4EBP1 phosphorylation) is “approximately 75 minutes”. For the same molecule, the “duration of suppression of S6K T389 phosphorylation after removal of the drug” value on mTORC1 [6] is “up to 16 h”.
With `Nc1ccc(-c2ccc3ncc4ccc(=O)n(-c5cccc(C(F)(F)F)c5)c4c3c2)cn1` [Torin2, 9-(6-aminopyridin-3-yl)-1-(3-(trifluoromethyl)phenyl)benzo[h][1,6]naphthyridin-2(1H)-one], the “pAkt(T308) by immunohistochemistry” value in the assay on mTOR (setting [16]) is “partly suppressed”. Further, the “pS6K(T389) and p4EBP1(T37/46) by immunohistochemistry” value with mTOR (setting [16]) is recorded as “strongly suppressed”. Besides, in the assay on mTOR (after 4-week treatment), the “pS6K(T389) and p4EBP1(T37/46) levels” value is listed as “showed some recovery”. In addition, the GI50 (commonly the concentration giving 50% growth inhibition) amounted to 0.0132 µM in the assay on H2122; 0.0258 µM in the assay with H1355; 0.0101 µM in the assay on H292; 0.105 µM in the assay with H358; 0.0607 µM in the assay on HCT-116; 0.219 µM in the assay with BT-20. Also, the GI50 with H1299 is 0.0236 µM; with MCF10A, 0.0321 µM; with HS578T, 0.0624 µM; with H1792 it was 0.0198 µM; with MCF7 it was 0.0411 µM; with H441, 0.0205 µM. The GI50 in the assay with H460 turned out to be 0.0457 µM; in the assay on SKBR3 it was 0.123 µM; in the assay with Hela, 0.0293 µM; with A549, 0.0311 µM; in the assay on MDAMB231, 0.108 µM. Moreover, the “pCHK1(S345)” value in the assay on ATR kinase is given as “slightly decreased”. The “tumor volume / tumor growth by MRI” value in the assay on KRAS-driven lung tumors is reported as “did not yield significant efficacy; also recorded: neither Torin2 (40 mg/kg, q.d.) nor AZD6244 (25 mg/kg, q.d.) alone resulted in a significant inhibition of tumor volume”. In assay [9], the LC3-1/II autophagosome markers result was “dose dependent increase of LC3-1/II autophagosome markers”. Moreover, the pERK1/2 levels entry in the assay on pERK was “significantly increased”. The “recovery of AktT308 phosphorylation by 72 hours” value is on record as “partially” in assay [10] and “completely recovered” in [15]. Besides, the “sensitivity of proliferation, Calu1” value in the assay on Calu1 is given as “relatively more resistant”. In assay [11], the “apoptosis (PARP cleavage) in H358” value is listed as “induced strong apoptosis”. Moreover, in assay [12], the “sensitization of IR treatment, clonogenic survival” value is given as “dose dependent sensitization of the IR treatment”. The “concentration at which PI3K is inhibited” value with PI3K (setting [17]) is “above 200 nM”. The EC50 (as a rule, the concentration giving half of the maximal effect) is 0.2 µM in the assay with PI3K (read-out: apparent EC50 against T308 with S473D mutant of Akt, PC3 AktS473D cell line) and under 0.01 µM with T308 of Akt. For the same molecule, on mTORC1 [13], the “concentration at which mTORC1 is inhibited” value is given as “less than 10 nM”. The “concentration at which DNA-PK is inhibited” value on DNA-PK was 20 to 100 nM. For the same molecule, the “concentration at which ATR is inhibited” value on ATR [3] (setting [17]) fell in the range of 20 to 100 nM. Also, the “concentration at which ATM is inhibited” value at ATM [4] (setting [17]) lay in the range of 20 to 100 nM. For the same molecule, the “recovery of mTORC1 kinase activity after removal of drug” value on mTORC1 [5] (about 75 minutes window) is listed as “sustained inhibition of mTORC1”. At mTORC2 [14], the “concentration at which mTORC2 is inhibited” value is “less than 10 nM”. The “punctate acridine orange staining (autophagy)” value with Hela cells was “dose dependent increase in punctate acridine staining”. Moreover, the “mode of mTOR inhibition” value at Human mTORC1 complex was “ATP-competitive fashion”. Besides, the “time for AktS473 phosphorylation (mTORC2 function) to recover after wash-out” value at mTORC2 [2] is recorded as “approximately 4 hours”. Further, the “cell cycle distribution by flow cytometry” value with Hela S3 cells was “dose-dependent decrease in G1 cells and an increase in S-phase, sub-G1 phase cells and cell death”.
